Source: patent EP3915546A1, “USE OF ACID AS SOLVENT FOR PRECIPITATIONS” (leon-nanodrugs GmbH, priority 2020, dated 2021)
Each block holds one compound with its values, some of them ahead of it.

Tests used:
Format in all cases: physicochemical
[1] = Precipitation with water: total concentration in suspension and share dissolved in the mother liquor
Experimental: Für die pharmazeutische Weiterverarbeitung der Suspension zu einem Arzneimittel ist es wünschenswert, eine Wirkstoffkonzentration von mehr als 50 mg/ml zu erzeugen. Tabelle 4: Erzeugung von ENZ Partikeln durch Fällung. Gesamtkonzentration an ENZ in der Suspension (mg/ml) und der Anteil (%) des in der Mutterlauge gelösten ENZ
Wird eine Lösung von 100 mg/ml Enzalutamide in Aceton mit gleichem Teil an Wasser gemischt, so fällt ein Großteil des Enzalutamides aus, da dessen Sättigungskonzentration überschritten wird. Die resultierende Mischung enthält 50% Aceton und eine Gesamtmenge von 50 mg/ml Enzalutamide. Davon werden 7,87 mg/ml in der Mutterlauge gelöst vorliegen (Tabelle 3, Nr. 2, Aceton); dies entspricht 15,7 % der Gesamtmenge von 50 mg/ml (Tabelle 4, Nr. 2, Aceton). Diese gelöste Menge an Enzalutamide (15,7 % der Gesamtmenge) ist zu hoch und führt zu einem unerwünschten und schnellen Wachstum der Partikel.

[2] = Microscopy of the suspension after precipitation in a MikroJetReaktor (particle growth)
Experimental: • Figur 1: Mikroskopische Aufnahme von ENZ, entstanden durch Mischen von 1 Teil einer Lösung von 100 mg/ml ENZ in Aceton mit 1 Teil Wasser. Maßstab: Der Balken im Bild entspricht 20 µm. (a) Aufnahme unmittelbar nach Fällung. (b) Aufnahme ca. 12 Stunden nach der Fällung. • Figur 2: Mikroskopische Aufnahme von ENZ-Partikeln. Entstanden durch Mischen von 1 Teil einer Lösung von 100 mg/ml ENZ in Eisessig mit 10 Teilen Wasser. Maßstab: Der Balken im Bild entspricht 20 µm. (a) Aufnahme ca. 1 Stunde nach Fällung. (b) Aufnahme ca. 18 Stunden nach der Fällung.
100 mg Enzalutamide werden unter Rühren in 1 ml Aceton bei Raumtemperatur gelöst (100 mg/ml). Diese Lösung wird in einem MikroJetReaktor mit Wasser gemischt in einem Mischungsverhältnis von 1 Teil Enzalutamide in Aceton zu 1,01 Teilen Wasser. Die erhaltene Suspension wird mikroskopiert (Figur. 1).
100 mg Enzalutamide werden unter Rühren in 1 ml Eisessig bei Raumtemperatur gelöst (100 mg/ml). Diese Lösung wird in einem MikroJetReaktor mit Wasser gemischt in einem Mischungsverhältnis von 1 Teil Enzalutamide in Eisessig zu 10 Teilen Wasser. Die erhaltene Suspension wird mikroskopiert (Figur 3).

[3] = Thermodynamic saturation solubility in solvents and their mixtures with water (24 h stirring at room temperature, HPLC)
Experimental: Zur Bestimmung der thermodynamischen Sättigungslöslichkeit einer Substanz in einem bestimmten Lösungsmittel wird zunächst zur Orientierung eine Literaturrecherche durchgeführt, um einen ersten groben Richtwert zu erhalten. Danach wurden 500 mg (und gegebenenfalls mehr) des Wirkstoffpulvers eingewogen und in 5 ml des Lösungsmittels unter leichtem Rühren suspendiert. Falls das Pulver vollständig in Lösung ging, wurde zusätzlich 100 mg (oder iterative nochmalige Zugabe der initial eingewogenen Menge) Feststoff zugesetzt. Dies wurde wiederholt, bis sich ein Bodensatz bildete.
Die feststoff-enthaltende Mischung wurde verschlossen und 24 Stunden bei Raumtemperatur gerührt. Nach 24 Stunden wurde der Überstand von Bodensatz getrennt, zentrifugiert (Filtration ist nahezu unmöglich) und zur Quantifizierung mit der mobilen Phase der HPLC-Methode verdünnt.
Ein weiterer Teil des zentrifugierten Überstandes wurde unter Rühren mit demineralisiertem Wasser im Volumenverhältnis von 1:1 gemischt. Dazu wurde Wasser vorgelegt und die Wirkstofflösung unter Rühren oder Schütteln zu pipettiert. Dabei fiel Wirkstoff aus. Der Überstand wurde nach 3 Stunden von Bodensatz getrennt, zentrifugiert und zur Quantifizierung mittels HPLC verdünnt. Der Verdünnungsschritt wird grob abgeschätzt, Zielkonzentration sind z. B. 100 µg/mL je nach Wirkstoff, um im Linearitätsbereich des Detektors zu bleiben. Liegt die Konzentration zu hoch oder zu niedrig wird der Verdünnungsschritt angepasst. Die Verdünnung erfolgte mit einem zu mobilen Phase kompatiblen Lösungsmittelgemisch (z. B. Methanol vorlegen, Probe zugeben, Wasser zugeben). Falls die Substanz in diesem Lösungsmittelgemisch in dieser Verdünnung nicht löslich war, wurde die Verdünnung mit reinem organischem Lösungsmittel wiederholt.
Dieses Vorgehen wurde für die Mischungsverhältnisse von 1:2, 1:3 und 1:10 wiederholt.

[4] = Aceton, Lösungsmittel-Gehalt der Mischung 100 %
[5] = Aceton/Wasser, Lösungsmittel-Gehalt der Mischung 25 %
[6] = Aceton/Wasser, Lösungsmittel-Gehalt der Mischung 33,3 %
[7] = Aceton/Wasser, Lösungsmittel-Gehalt der Mischung 50 %
[8] = Eisessig, Lösungsmittel-Gehalt der Mischung 100 %
[9] = Eisessig/Wasser, Lösungsmittel-Gehalt der Mischung 9,09 %
[10] = Eisessig/Wasser, Lösungsmittel-Gehalt der Mischung 25 %
[11] = Eisessig/Wasser, Lösungsmittel-Gehalt der Mischung 33,3 %
[12] = Eisessig/Wasser, Lösungsmittel-Gehalt der Mischung 50 %
[13] = THF, Lösungsmittel-Gehalt der Mischung 100 %
[14] = THF/Wasser, Lösungsmittel-Gehalt der Mischung 25 %
[15] = THF/Wasser, Lösungsmittel-Gehalt der Mischung 33,3 %
[16] = THF/Wasser, Lösungsmittel-Gehalt der Mischung 50 %
[17] = Aceton/Wasser, Lösungsmittel-Gehalt der Mischung 9,09 %
[18] = Ameisensäure/Wasser, Lösungsmittel-Gehalt der Mischung 9,09 %
[19] = Ethanol, Lösungsmittel-Gehalt der Mischung 100 %
[20] = Ethanol/Wasser, Lösungsmittel-Gehalt der Mischung 9,09 %
[21] = Ethanol/Wasser, Lösungsmittel-Gehalt der Mischung 25 %
[22] = Ethanol/Wasser, Lösungsmittel-Gehalt der Mischung 33,3 %
[23] = Ethanol/Wasser, Lösungsmittel-Gehalt der Mischung 50 %
[24] = THF/Wasser, Lösungsmittel-Gehalt der Mischung 9,09 %

- ENZ in Lösung bei Fällung aus (% der Gesamtmenge in Suspension) ([1]; Aceton, Lösungsmittel-Gehalt der Suspension 100 %, ENZ in Suspension 100 mg/ml): 100%
- ENZ in Lösung bei Fällung aus (% der Gesamtmenge in Suspension) ([1]; Eisessig, Lösungsmittel-Gehalt der Suspension 100 %, ENZ in Suspension 100 mg/ml): 100%
- ENZ in Lösung bei Fällung aus (% der Gesamtmenge in Suspension) ([1]; Fällung aus Aceton with Wasser, Lösungsmittel-Gehalt der Suspension 25 %, ENZ in Suspension 25 mg/ml): 0,93%
- ENZ in Lösung bei Fällung aus (% der Gesamtmenge in Suspension) ([1]; Fällung aus Aceton with Wasser, Lösungsmittel-Gehalt der Suspension 33,3 %, ENZ in Suspension 33,3 mg/ml): 1,61%
- ENZ in Lösung bei Fällung aus (% der Gesamtmenge in Suspension) ([1]; Fällung aus Aceton with Wasser, Lösungsmittel-Gehalt der Suspension 50 %, ENZ in Suspension 50 mg/ml): 15,7%
- ENZ in Lösung bei Fällung aus (% der Gesamtmenge in Suspension) ([1]; Fällung aus Eisessig with Wasser, Lösungsmittel-Gehalt der Suspension 9,09 %, ENZ in Suspension 9,1 mg/ml): 0,95%
- ENZ in Lösung bei Fällung aus (% der Gesamtmenge in Suspension) ([1]; Fällung aus Eisessig with Wasser, Lösungsmittel-Gehalt der Suspension 25 %, ENZ in Suspension 25 mg/ml): 0,45%
- ENZ in Lösung bei Fällung aus (% der Gesamtmenge in Suspension) ([1]; Fällung aus Eisessig with Wasser, Lösungsmittel-Gehalt der Suspension 33,3 %, ENZ in Suspension 33,3 mg/ml): 0,88%
- ENZ in Lösung bei Fällung aus (% der Gesamtmenge in Suspension) ([1]; Fällung aus Eisessig with Wasser, Lösungsmittel-Gehalt der Suspension 50 %, ENZ in Suspension 50 mg/ml): 4,09%
- ENZ in Lösung bei Fällung aus (% der Gesamtmenge in Suspension) ([1]; Fällung aus THF with Wasser, Lösungsmittel-Gehalt der Suspension 25 %, ENZ in Suspension 25 mg/ml): 1,46%
- ENZ in Lösung bei Fällung aus (% der Gesamtmenge in Suspension) ([1]; Fällung aus THF with Wasser, Lösungsmittel-Gehalt der Suspension 33,3 %, ENZ in Suspension 33,3 mg/ml): 8,04%
- ENZ in Lösung bei Fällung aus (% der Gesamtmenge in Suspension) ([1]; Fällung aus THF with Wasser, Lösungsmittel-Gehalt der Suspension 50 %, ENZ in Suspension 50 mg/ml): 33,8%
- ENZ in Lösung bei Fällung aus (% der Gesamtmenge in Suspension) ([1]; THF, Lösungsmittel-Gehalt der Suspension 100 %, ENZ in Suspension 100 mg/ml): 100%
- Sättigungslöslichkeit von ENZ [3, 4]: 358 mg/mL
- Sättigungslöslichkeit von ENZ [3, 5]: 0,233 mg/ml
- Sättigungslöslichkeit von ENZ [3, 6]: 0,537 mg/ml
- Sättigungslöslichkeit von ENZ [3, 7]: 7,87 mg/ml
- Sättigungslöslichkeit von ENZ [3, 8]: 155,4 mg/ml
- Sättigungslöslichkeit von ENZ [3, 9]: 0,086 mg/ml
- Sättigungslöslichkeit von ENZ [3, 10]: 0,112 mg/ml
- Sättigungslöslichkeit von ENZ [3, 11]: 0,294 mg/ml
- Sättigungslöslichkeit von ENZ [3, 12]: 2,044 mg/ml
- Sättigungslöslichkeit von ENZ ([3]; Eisessig/Wasser, Lösungsmittel-Gehalt der Mischung 50 %, listed as Enzalutamide): 2,04 mg/ml
- Sättigungslöslichkeit von ENZ [3, 13]: 364 mg/mL
- Sättigungslöslichkeit von ENZ [3, 14]: 0,365 mg/ml
- Sättigungslöslichkeit von ENZ [3, 15]: 2,68 mg/ml
- Sättigungslöslichkeit von ENZ [3, 16]: 16,9 mg/ml
SMILES: CNC(=O)c1ccc(N2C(=S)N(c3ccc(C#N)c(C(F)(F)F)c3)C(=O)C2(C)C)cc1F [ENZ, Enzalutamid]
- Particles seen by microscopy after precipitation ([2]; 100 mg/ml in Aceton mixed with 1,01 Teilen Wasser in a MikroJetReaktor): Mikropartikel, die innerhalb von 12 Stunden zu großen Nadeln wachsen
- Particles seen by microscopy after precipitation ([2]; 100 mg/ml in Eisessig mixed with 10 Teilen Wasser in a MikroJetReaktor): im Vergleich zu Aceton deutlich kleinere Partikel, die in Laufe von 18 Stunden zu Nadeln wachsen

SMILES: CCC(C)n1ncn(-c2ccc(N3CCN(c4ccc(OCC5COC(Cn6cncn6)(c6ccc(Cl)cc6Cl)O5)cc4)CC3)cc2)c1=O (centres unmarked) [ITZ, Itraconazol]
- Sättigungslöslichkeit von ITZ [3, 4]: 2,500 mg/ml
- Sättigungslöslichkeit von ITZ relativ zu der Sättigungslöslichkeit im Lösungsmittel [3, 4]: 100%
- Sättigungslöslichkeit von ITZ [3, 17]: 0,0001 mg/ml
- Sättigungslöslichkeit von ITZ relativ zu der Sättigungslöslichkeit im Lösungsmittel [3, 17]: 0,004%
- Sättigungslöslichkeit von ITZ [3, 5]: 0,002 mg/ml
- Sättigungslöslichkeit von ITZ relativ zu der Sättigungslöslichkeit im Lösungsmittel [3, 5]: 0,09%
- Sättigungslöslichkeit von ITZ [3, 6]: 0,008 mg/ml
- Sättigungslöslichkeit von ITZ relativ zu der Sättigungslöslichkeit im Lösungsmittel [3, 6]: 0,34%
- Sättigungslöslichkeit von ITZ [3, 7]: 0,038 mg/ml
- Sättigungslöslichkeit von ITZ relativ zu der Sättigungslöslichkeit im Lösungsmittel [3, 7]: 1,53%
- Sättigungslöslichkeit von ITZ ([3]; Ameisensäure, Lösungsmittel-Gehalt der Mischung 100 %): 435 mg/mL
- Sättigungslöslichkeit von ITZ [3, 18]: 0,01 mg/ml
- Sättigungslöslichkeit von ITZ relativ zu der Sättigungslöslichkeit im Lösungsmittel [3, 18]: 0,002%
- Sättigungslöslichkeit von ITZ [3, 8]: 157,8 mg/ml
- Sättigungslöslichkeit von ITZ relativ zu der Sättigungslöslichkeit im Lösungsmittel [3, 8]: 100%
- Sättigungslöslichkeit von ITZ [3, 9]: 0,028 mg/ml
- Sättigungslöslichkeit von ITZ relativ zu der Sättigungslöslichkeit im Lösungsmittel [3, 9]: 0,02%
- Sättigungslöslichkeit von ITZ [3, 10]: 0,009 mg/ml
- Sättigungslöslichkeit von ITZ relativ zu der Sättigungslöslichkeit im Lösungsmittel [3, 10]: 0,01%
- Sättigungslöslichkeit von ITZ [3, 11]: 0,210 mg/ml
- Sättigungslöslichkeit von ITZ relativ zu der Sättigungslöslichkeit im Lösungsmittel [3, 11]: 0,13%
- Sättigungslöslichkeit von ITZ [3, 12]: 1,455 mg/ml
- Sättigungslöslichkeit von ITZ relativ zu der Sättigungslöslichkeit im Lösungsmittel [3, 12]: 0,92%
- Sättigungslöslichkeit von ITZ [3, 19]: 0,289 mg/ml
- Sättigungslöslichkeit von ITZ relativ zu der Sättigungslöslichkeit im Lösungsmittel [3, 19]: 100%
- Sättigungslöslichkeit von ITZ [3, 20]: 0,009 mg/ml
- Sättigungslöslichkeit von ITZ relativ zu der Sättigungslöslichkeit im Lösungsmittel [3, 20]: 2,95%
- Sättigungslöslichkeit von ITZ [3, 21]: 0,006 mg/ml
- Sättigungslöslichkeit von ITZ relativ zu der Sättigungslöslichkeit im Lösungsmittel [3, 21]: 2,08%
- Sättigungslöslichkeit von ITZ [3, 22]: 0,002 mg/ml
- Sättigungslöslichkeit von ITZ relativ zu der Sättigungslöslichkeit im Lösungsmittel [3, 22]: 0,69%
- Sättigungslöslichkeit von ITZ [3, 23]: 0,102 mg/ml
- Sättigungslöslichkeit von ITZ relativ zu der Sättigungslöslichkeit im Lösungsmittel [3, 23]: 34,36%
- Sättigungslöslichkeit von ITZ [3, 13]: 4,255 mg/ml
- Sättigungslöslichkeit von ITZ relativ zu der Sättigungslöslichkeit im Lösungsmittel [3, 13]: 100%
- Sättigungslöslichkeit von ITZ [3, 24]: 0,001 mg/ml
- Sättigungslöslichkeit von ITZ relativ zu der Sättigungslöslichkeit im Lösungsmittel [3, 24]: 0,02%
- Sättigungslöslichkeit von ITZ [3, 14]: 0,002 mg/ml
- Sättigungslöslichkeit von ITZ relativ zu der Sättigungslöslichkeit im Lösungsmittel [3, 14]: 0,05%
- Sättigungslöslichkeit von ITZ [3, 15]: 0,013 mg/ml
- Sättigungslöslichkeit von ITZ relativ zu der Sättigungslöslichkeit im Lösungsmittel [3, 15]: 0,29%
- Sättigungslöslichkeit von ITZ [3, 16]: 0,677 mg/ml
- Sättigungslöslichkeit von ITZ relativ zu der Sättigungslöslichkeit im Lösungsmittel [3, 16]: 15,91%
- Sättigungslöslichkeit von ITZ ([3]; in Tetrahydrofuran, Aceton und Ethanol): < 5 mg/mL
- Sättigungslöslichkeit von ITZ ([3]; in den Lösungsmitteln Ameisensäure und Eisessig): > 150 mg/mL
